This is an account of results in US9969770B2, “Proline compounds as Granzyme B inhibitors” (viDA Therapeutics Inc., priority 2014, dated 2018).

In the assay the target is GzmB (Homo sapiens, UniProt P10144). As to the kind of experiment: Inhibition of fibronectin cleavage by GzmB. It counts as biochemical. The settings on record: 20 nM granzyme B, 30° C.; for inhibition at 0.62 µM: 0.62 uM inhibitor, read-out: Percent Inhibition at Inhibitor Concentration 0.62 uM; for inhibition at 5.56 µM: 5.56 uM inhibitor, read-out: Percent Inhibition at Inhibitor Concentration 5.56 uM; for inhibition at 50 µM: 50 uM inhibitor, read-out: Percent Inhibition at Inhibitor Concentration 50 uM. On the procedure: Black, 96 well high-binding assay plates (Griener Bio-one) were treated overnight at 4° C. with 40 uL of 8 ug/mL Hilyte Fluor 488 labeled Fibronectin (Cytoskeleton, Inc). After fibronectin coating, plates were washed 3 times in buffer (20 mM Tris-HCl, pH 7.4, 20 mM NaCl) then once with granzyme B assay buffer (50 mM HEPES, pH 7.5, 0.1% CHAPS). After washing, 50 uL of granzyme B assay buffer was added to each fibronectin-coated well. In a separate non-binding 96 well assay plate 5 uL of 20× inhibitor serial dilution stocks were added to 45 uL of 2.22×GzmB mix to establish inhibition (enzyme/inhibitor mixes were all prepared in granzyme B assay buffer and were incubated first at room temperature for 20 minutes, then at 30° C. for another 10 minutes). After incubation, 50 uL of this 2× enzyme/inhibitor mix was added to the corresponding coated well to initiate fibronectin cleavage (20 nM final granzyme B concentration, 8-point inhibitor dilution series starting at 50 uM). The assay was conducted at 30° C. in the TECAN plate reader (TECAN INFINITE® M1000 Pro), which was programmed to monitor the kinetic fluorescence polarization signal (filter set Ex/Em 470 nm/527 nm) with readings taken every minute, for 1 hour. Proteolytic activity was evaluated as the rate of fluorescence enhancement in the parallel emission over the linear range of the reaction. % Inhibition values were calculated from assay controls and the resulting date is shown in Table 6.
GzmB, sequence (P10144 21-247): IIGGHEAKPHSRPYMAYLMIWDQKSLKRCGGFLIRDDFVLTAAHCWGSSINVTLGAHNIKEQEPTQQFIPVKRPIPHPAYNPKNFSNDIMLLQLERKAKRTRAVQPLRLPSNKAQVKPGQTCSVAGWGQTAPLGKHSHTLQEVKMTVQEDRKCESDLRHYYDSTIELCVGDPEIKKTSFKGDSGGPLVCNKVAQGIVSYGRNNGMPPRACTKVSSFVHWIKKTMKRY

For `CC[C@H](C)[C@H](NC(=O)Cc1ccccc1)C(=O)NCC(=O)N1C[C@H](C2CCCCC2)C[C@H]1C(=O)NCc1nn[nH]n1` [Compound C2, (2S,4S)—N-((2H-tetrazol-5-yl)methyl)-4-cyclohexyl-1-(2-((2S,3S)-3-methyl-2-(2-phenylacetamido)pentanamido)acetyl)pyrrolidine-2-carboxamide], the inhibition at 0.62 µM was 40%, the inhibition at 5.56 µM was 76% and the inhibition at 50 µM amounted to 84%.
The corresponding values for `O=C(O)CCC(=O)N[C@H](C(=O)NCC(=O)N1C[C@H](C2CCCCC2)C[C@H]1C(=O)NCc1nn[nH]n1)C1CCCC1` [Compound C5, 4-(((S)-2-((2-((2S,4S)-2-(((2H-tetrazol-5-yl)methyl)carbamoyl)-4-cyclohexylpyrrolidin-1-yl)-2-oxoethyl)amino)-1-cyclopentyl-2-oxoethyl)amino)-4-oxobutanoic acid] are 35%, 70% and 86%.
The corresponding values for `CC[C@H](C)[C@H](NC(=O)CCC(=O)O)C(=O)NCC(=O)N1C[C@H](Sc2ccccc2)C[C@H]1C(=O)NCc1nn[nH]n1` [Compound C13, 4-(((2S,3S)-1-((2-((2S,4R)-2-(((2H-tetrazol-5-yl)methyl)carbamoyl)-4-(phenylthio)pyrrolidin-1-yl)-2-oxoethyl)amino)-3-methyl-1-oxopentan-2-yl)amino)-4-oxobutanoic acid] are 28%, 58% and 81%.
